Experimental data published in article PMC10321287, “β-amyloid binds to microglia Dectin-1 to induce inflammatory response in the pathogenesis of Alzheimer's disease” (International Journal of Biological Sciences, 2023).

How the values were obtained:
Dectin-1 [1] = assay: Co-IP of APP/β-amyloid and Dectin-1 in brain lysates; format: binding, mice; details: lysates from WT and Aβ42 brain tissues, Protein A magnetic beads
Protocol: The triggering receptor expressed on myeloid cells 2 (Trem2) is a microglial surface receptor genetically linked to the risk of AD [28]. Most Aβ functions in microglia are thought to be mediated by its binding to Trem2 [29]. […] Trem2 is the currently reported microglia receptor that can directly bind to Aβ, and we used it as a positive control in this experiment. […] Next, we performed a protein interaction analysis using Co-IP. APP/β-amyloid was added to Protein A magnetic beads as a bait protein, and lysates from WT and Aβ42 brain tissues were added. […] In turn, we could also capture the expression of APP/β-amyloid protein using Dectin-1 as a bait protein (Figure 6C). […] Therefore, we used surface plasmon resonance (SPR) to identify direct Aβ42-Dectin-1 interactions at the molecular level. […] Nuclei are counterstained with DAPI (blue) [scale bar = 5 μm]. (B) Bio-Aβ42 is added to streptavidin-agarose beads and incubated. Biotin alone was used as control. Lysates prepared from BV2 cells were added to beads. The eluent was loaded onto a polyacrylamide gel for western blot analysis. Total lysates were used as input controls. Trem2 was used as a positive control. (C) The Dectin-1-APP/ β-amyloid interaction is analyzed by co-immunoprecipitation in the brains of WT and model mice. […] Mean KD constant derived from five separate experiments. (E) 3D binding model of dectin-1 and amyloid beta peptide. […]

Syk = Syk phosphorylation in BV2 cells (western blot); format: cell-based; details: 20 µM Bio-Aβ42, 45 min
From the text: (§1) GAPDH was used as loading control. […] GAPDH was used as loading control. […] GAPDH was used as loading control. […] GAPDH was used as loading control.

Dectin-1 [2] = assay: Pull-down with Bio-Aβ42 from BV2 lysates; format: binding; details: 100 µL of 20 μM biotinylated Aβ42 on streptavidin-agarose beads, lysate 24 h at 4°C; biotin control; Trem2 positive control
Protocol: Lysates prepared from microglia cells and mouse brain tissues were then added to the streptavidin-agarose beads with biotinylated- Aβ42. The mixture was incubated for 24h at 4°C under gentle rocking. Samples were then spun and washed 3 times. Then, 5x loading buffer was added in the elution buffer and boiled for 10min, and the samples were used for western blot analysis. Total lysates were used as an input control.
Nuclei are counterstained with DAPI (blue) [scale bar = 5 μm]. (B) Bio-Aβ42 is added to streptavidin-agarose beads and incubated. Biotin alone was used as control. Lysates prepared from BV2 cells were added to beads. The eluent was loaded onto a polyacrylamide gel for western blot analysis. Total lysates were used as input controls. Trem2 was used as a positive control. (C) The Dectin-1-APP/ β-amyloid interaction is analyzed by co-immunoprecipitation in the brains of WT and model mice. […] Mean KD constant derived from five separate experiments. (E) 3D binding model of dectin-1 and amyloid beta peptide. The backbones of dectin-1 and amyloid beta peptide are shown as cartoons. The residues in dectin-1 are shown as cyan sticks, whereas the residues in amyloid beta-peptide are shown as wheat sticks. The hydrogen bonds are depicted as red dashed lines and the salt bridges are depicted as blue dashed lines.

[3] = test system: Tnfa, Il1b, IL-6, Cox2, and Inos; assay: mRNA levels of inflammatory genes (real-time qPCR); format: cell-based; details: Aβ42-stimulated, normalized to GAPDH
Protocol: Total RNA was isolated from cultured BV2 cells and brain tissues using TRIzol reagent (Thermo Fisher, 15596026) by standard techniques. Total RNA concentration was measured by a spectrophotometer. Then, PrimeScript RT-reagent Kit (Takara, RR037A) was used for cDNA synthesis. Real-time PCR amplification reactions were carried out on CFX96 Touch Real-Time PCR Detection System (Bio-Rad) using TB Green Premix Ex Taq II (Takara; RR820A). Quantification of the mRNA expression was calculated by […] method with GAPDH normalization. Primer sequences used in this study were presented in Supplementary Table S2.
(§2) Figure 5 Dectin-1 interference prevents Aβ42-induced inflammatory response in BV2 cells. (A) Time-course of Dectin-1-Syk interaction. […] (B) HEK-293T cells were transfected with Flag-tagged Dectin-1 (Flag-D1) and HA-tagged Dectin-1 (HA-D1). […] (C) Time-course of Syk phosphorylation. […] Total proteins were extracted and probed for p-Syk and Syk levels. GAPDH was used as loading control. (D) Dose-course of Syk phosphorylation. […] Total proteins were used to measure p-Syk and Syk levels. GAPDH was used as loading control. (E) Determination of Dectin-1 interference efficiency in BV2 cells. Total proteins were extracted and probed for p-Syk and Syk levels. […] (H) TNFα release in cell supernatant measured by ELISA. (I) IL-1β release in in cell supernatant measured by ELISA. […]

PC12 cells = assay: PC12 damage by BV2-conditioned medium; format: cell-based; details: medium of Dectin-1-deficient BV2 cells exposed to Aβ42, PC12 treated 24 h
Protocol: To test cellular apoptosis, TUNEL assay was performed (C1098, Beyotime, Shanghai, China). For cells: Properly treated BV2 cells were fixed with 4% PFA for 20 min and washed with PBST for 3 times. Then cells were incubated with TUNEL test solution (5 μl of TdT enzyme and 45 μl of fluorescent labeling solution) under dark condition for 1h. After washing with 1xPBS for three times, nuclei were stained with DAPI. The apoptotic cells (green fluorescence) were observed under fluorescent microscopy and calculated as a percentage of the total number of cells. For brain tissue: Processed tissue samples were incubated with 50 μl of TUNEL reaction mixture for 1h at 37℃ under dark conditions. Color developed in DAB coloring solution. Apoptosis index (brown color) in the hippocampus area were measured using this formula: apoptosis index (%) = (apoptotic neurons / total neurons) × 100%.

Syk/NF-κB = Syk/NF-κB activation in BV2 cells (western blot); format: cell-based; details: Aβ42-stimulated BV2 cells, siRNA targeting Dectin-1
From the text: as §1

TNF-α and IL-1β = TNF-α and IL-1β release from BV2 cells (ELISA); format: cell-based; details: Aβ42-stimulated BV2 cells, cell supernatant
Protocol: After behavior test, blood samples from each group of mice were collected. Serum was obtained by centrifuge at 12000 rpm for 10 min and the levels of TNF-α and IL-1β were measured using ELISA kits. Briefly, samples were added to the wells with a biotin-conjugated antibody specific to TNF-α or IL-1β. Then, Avidin conjugated to Horseradish Peroxidase (HRP) was added to each microplate well and incubated. […] Finally, stop solution was added to stop the reaction and the color change were measured at a wavelength of 450 nm by a microplate reader. The concentration of TNF-α or IL-1β in the samples were then determined by comparing the OD value of the samples to the standard curve.
as §2, with “cells.” for “cells. Total proteins were extracted and probed for p-Syk and Syk levels.”

NF-κB p65 = assay: p65 nuclear translocation in BV2 cells (immunofluorescence); format: cell-based; details: Aβ42-stimulated BV2 cells, siRNA targeting Dectin-1
Protocol: Properly treated BV2 cells were fixed in 4% paraformaldehyde (PFA) for 15-20 min. The BV2 cells were then incubated with 1x PBS containing 0.1% Triton X-100 (PBST) for 20 min to increase membrane permeability. After block with 1% BSA for 1 h at room temperature, the primary antibody (1:100) was added and incubate overnight at 4 °C. Next day, the cells were washed three times with 1xPBS and incubated with fluorophore conjugated secondary antibody (1:500) for 2h. Finally, one drop of antifade mounting medium with DAPI (P0131, Beyotime) was added to stain the Nuclei. Then, sections were observed and analyzed under a Nikon A1 confocal microscope.
as §2, with “cells.” for “cells. Total proteins were extracted and probed for p-Syk and Syk levels.”

BV2 cells = assay: Microglia phagocytosis and clearance of FITC-Aβ42 (flow cytometry); format: cell-based; details: 20 μM FITC-Aβ42, 2 h (phagocytosis) then 24 h in FITC-Aβ-free medium (clearance), Dectin-1-deficient BV2 cells
Protocol: After incubation, the medium containing FITC-Aβ was removed, and the cells were washed three times with 1xPBS. BV2 cells were collected by centrifugation at 3000rpm for 5min, and resuspended in ice-cold 1xPBS solution. […] Cells were cultured in the FITC-Aβ-free medium for another 24 hours. Collect the cells and detect the level of intracellular Aβ by flow cytometry.

APP/β-amyloid: APP/β-amyloid protein used as bait with lysates from WT and Aβ42 brain tissues
binding to Dectin-1 (co-IP) (Dectin-1 [1]): binds to the Dectin-1 protein in these lysates

Bio-Aβ42: biotin-labeled Amyloid beta peptide, obtained from GL Biochem
Syk phosphorylation by Bio-Aβ42 (Syk): retained the Dectin-1 activating activity of Aβ42, as evidenced by the increased phosphorylation of Syk
binding to Dectin-1 (pull-down/Co-IP) (Dectin-1 [2]): Co-IP analysis further confirmed this result

siD1: siRNA targeting Dectin-1 gene; sense 5’-GGAGAAAUCCAGAGGAGAATT-3’, antisense 5’-UUCUCCUCUGGAUUUCUCCTT-3’ (chemistry not given here)
mRNA levels of inflammatory genes Tnfa, Il1b, IL-6, Cox2, Inos [3]: significantly reversed
PC12 damage by medium of siD1-treated microglia (PC12 cells): failed to damage PC12 cells
Syk/NF-κB activity after Dectin-1 knockdown (Syk/NF-κB): this increased activity of Syk/NF-κB was not seen in Dectin-1-deficient BV2 cells
TNF-α and IL-1β release after Dectin-1 knockdown (TNF-α and IL-1β): decreased the release of the inflammatory factors TNF-α and IL-1β
p65 nuclear translocation after Dectin-1 knockdown (NF-κB p65): remarkably inhibited Aβ42-induced p65 nuclear translocation

FITC-Aβ42: Aβ42 linked with a FITC label
phagocytosis and clearance of FITC-Aβ42, effect of Dectin-1 deficiency (BV2 cells): did not affect the fluorescence intensity of Aβ
